Consider two compounds from patent US11213514B2, “Alpha-1-adrenergic receptor agonist therapy” (The Regents of the University of California, priority 2016, dated 2022).

The subject of series [1] is Complex I, ATP synthase and Cytochrome C oxidase subunit transcripts. Briefly: RNAseq transcript abundance of mitochondrial gene sets in mouse heart. The format is in vivo. The protocol:
FIGS. 3A-3E. […] FIG. 3A. […] FIG. 3B. […] FIG. 3C. […] FIG. 3E.
An omnibus test of transcript abundance across all groups was performed with DESeq2 with groups encoded as categorical variables. One hundred-one genes were identified as significant by meeting the q<0.05 threshold (the set of genes with a 5% false discovery rate). Note, genes of potential interest can be found in Table 4.
(§1) (FIG. 3B). […] (FIG. 3C).
RNAseq was performed at the Carolina Center for Genome Sciences High Throughput Sequencing Facility. Libraries were prepared using an Illumina RNA TruSeq kit for total RNA. Single read sequencing (1×100) was performed on an Illumina HiSeq 2000 system. QC-passed reads were aligned to the mouse reference genome (mm9) using MapSplice.3 The alignment profile was determined by Picard Tools v1.64 (broadinstitute.github.io/picard/). Aligned reads were sorted and indexed using SAMtools and translated to transcriptome coordinates then filtered for indels, large inserts, and zero mapping quality using UBU v1.0 (github.com/mozack/ubu). Transcript abundance estimates for each sample were performed using RSEM, an expectation-maximization algorithm4 using the UCSC knownGene transcript and gene definitions. Raw RSEM read counts for all RNAseq samples were normalized to the overall upper quartile.5 Gene level differential expression testing was performed using the method of Love et al. (2014) implemented in the R package DESeq2. Gene set level tests were performed using the method of Efron and Tibshirani (2006) and gene sets as defined in the molecular signatures database, mSigdb.6 .GEO accession number is pending.

The subject of the next series is mouse heart ATP content. The protocol: FIGS. 3A-3E. […] Heart tissue was collected immediately after sacrifice on Day 7. FIG. 3A. […] Gene set analysis was performed on the DESeq2-derived statistics from an omnibus test across these four categories. […] FIG. 3B. RNA abundance for all sequenced cytochrome C oxidase subunits (25 genes), mitochondrial complex I subunits (42 genes), and ATP synthase subunits (17 genes) was aggregated by group and compared to vehicle treatment. FIG. 3C. Quantitative RT-PCR for peroxisome proliferator-activated receptor gamma coactivator 1-alpha (PGC1α) was performed on mouse heart tissue (n in individual bars) FIG. 3D. ATP content was measured in freshly harvested mouse heart tissue (total n in individual bars), then quantified relative to protein content. […] FIG. 3E. Thiobarbituric acid reactive substances (TBARS) were assayed in mouse myocardium.
as §1
Mouse hearts were removed and immediately processed for luciferin-luciferase ATP assay (ThermoFisher Scientific A22066) according to manufacturer instruction. Tissue was homogenized and heated at 95 C for 7 minutes, centrifuged at 14000 rpm for 5 minutes. Total protein in the supernatant was quantified using the Bradford Assay (Pierce #23200). Luminescence was measured at 560 nm.

In another series the test system is ERK. As to the kind of experiment: ERK activation in mouse heart lysates with DOX, dabuzalgron and trametinib. The format is in vivo. From the text: FIGS. 4A-4F. […] The reaction was stopped immediately and lysates were blotted for total and phospho-ERK (pERK). FIG. 4A. […] FIG. 4B. […] FIG. 4C. […] The average pERK/ERK ratio for each experiment was derived from at least 2 individual wells and normalized to the pERK/ERK ratio for vehicle treated NRVMs. FIG. 4D and FIG. 4E. […] Heart lysates were blotted for pERK and ERK. Results were compared using one way ANOVA with Tukey post-test. FIG. 4F.
On Day 7, mice underwent echocardiography and were sacrificed by cervical dislocation after an overdose of isoflurane.
Homogenized tissue or cells were lysed in RIPA buffer with protease and phosphatase inhibitor (as above) and the lysate was passed through a Qiashredder. Equal protein abundance was assured with the Bradford assay (tissue lysates) or equal cell number (NRVMs). Samples were run for 2 hours at 140 v on ice on a Novex NuPAGE 4-12% Bis-Tris gel then transferred to a PVDF membrane at 90V for 1 hour on ice. Membranes were blocked in 5% milk at room temperature for 1 hour. We used Cell Signaling kit #9100 (pERK Thr202/Tyr204 1:250, ERK 1:1000, anti-rabbit HRP 1:1000). BID: (Santa Cruz, SC-11423); Cytochrome C: (Santa Cruz, SC-13560); AIF: (Santa Cruz, SC-13116); Caspase 8: (MBL international corporation, JM-3020-100); PARP: (Cell Signaling, #9532); Caspase 3: (Cell Signaling, #9665); Cleaved caspase 3: (Cell Signaling, #9664)

For series [2], the system named is neonatal rat ventricular myocytes (NRVMs). As to the kind of experiment: Annexin V / propidium iodide apoptosis and cell death in NRVMs. The format is cell-based. The protocol: FIGS. 5A-5B. In neonatal rat ventricular myocytes, dabuzalgron protects against apoptotic and necrotic cell death due to doxorubicin. […] Apoptosis was detected using FITC-labeled Annexin V, cell death was detected using propridium iodide, and nuclei were labeled with Hoechst. FIG. 5A. Representative epifluorescence microscopy for each treatment condition. FIG. 5B. Fluorescence intensity was analyzed using Image J software for 3 independent experiments, using at least 2 wells per condition for each experiment.
Cells were washed with cold PBS two times then incubated with 200 μl binding buffer (10 mM HEPES, 140 mM NaCl, and 2.5 mM CaCl2, pH 7.4) including 10 μL fluorescein isothiocyanate (FITC)-labeled Annexin V, 2 μL propidium iodide (PI) and 1 μg/mL Hoechst 33342 (Molecular Probes, USA) for 15 min at room temperature. They were examined under a epifluorescence microscopy (Olympus IX81 Inverted Light Microscope, UNC Microscopy Core). Images were analyzed using Image J software. The experiment was carried out three independent times with duplicates of each treatment condition. An average of 352 nuclei were counted in an average of 6 microscopic fields per experiment.

[3] abbreviates: NRVMs, DOX, four hour treatment.
Setting [4] is: DOX + dabuzalgron 10 μg/kg twice daily.
Setting [5] is: dabuzalgron in the absence of DOX.

Read-outs that look alike come from different tables or passages of the source.

As for `COc1cccc2c1C(=O)c1c(O)c3c(c(O)c1C2=O)C[C@@](O)(C(=O)CO)C[C@@H]3O[C@H]1C[C@H](N)[C@H](O)[C@H](C)O1` [DOX, doxorubicin], in series [1] (DOX 20 mg/kg, Day 7), the “abundance of ATP synthase subunits (17 genes)” value is “decreased” and the “abundance of Complex I subunits (42 genes)” value is listed as “decreased”. Besides, the “decrease in ATP content compared to untreated hearts” value with mouse heart ATP content (mouse, in vivo) is 23±7%. Besides, the “ERK activation in heart” value in the series with ERK (mice treated with DOX) was “reduced”. For the same compound, in series [2] (setting [3]), the “apoptosis (Annexin V staining)” value is recorded as “increased”; the “necrotic cell death (costaining with Annexin V and propidium iodide)” value is “increased”.
Consider `Cc1c(OCC2=NCCN2)ccc(Cl)c1NS(C)(=O)=O` [dabuzalgron, N-[6-chloro-3-(4,5-dihydro-1H-imidazol-2-ylmethoxy)-2-methylphenyl]methanesulfonamide], for which, in series [1] (setting [4]), the “expression of ATP synthase subunits after DOX” value was “restored”, the “expression of Complex I subunits after DOX” value was “restored” and the “expression of Cytochrome C oxidase subunits (25 genes) after DOX” value was “increased”. Moreover, in series [1] (setting [5]), the “ATP synthase subunit abundance” value was “no significant effect”, the “Complex I subunit abundance” value is given as “increased” and the “Cytochrome C (oxidase subunit) abundance” value was “no significant effect”. For the same compound, the ATP content result in the series with mouse heart ATP content (hearts of DOX-treated mice) was “restored”. Also, the ATP content entry with mouse heart ATP content (uninjured mice) is recorded as “did not affect”. Further, the “effect on DOX-induced reduction of ERK activation” value with ERK (mice, DOX + dabuzalgron) is “partially mitigated”. The “ERK activation after trametinib” value in the series with ERK (mice, DOX, dabuzalgron and trametinib) was “could not restore”. Further, in series [2], the “Annexin V or propidium iodide staining vs untreated cells” value was “did not change”. Further, the “effect on DOX-induced necrotic cell death” value in series [2] (NRVMs, DOX 204 with dabuzalgron 1004, four hours) was “abrogated”. Further, in series [2] (NRVMs, DOX with dabuzalgron 1004, four hours), the “effect on DOX-induced apoptosis” value is given as “abrogated”.
